In publication PMC10224329, “Design, Synthesis, and Antiproliferative Activity of Benzopyran-4-One-Isoxazole Hybrid Compounds” (Molecules, 2023):

Tests used:
[1] = target: phosphatidylinositol 3-kinase (PI3K); design: method as in PMID 8106507; settings: cellular; cited from earlier work
[2] = system: panel of cancer cell lines (CCRF-CEM, SKOV-3, MDA-MB-231, PC-3, DU-145, iSLK); test: MTS cell viability assay, summary over the cancer cell line panel; assay type: cell-based; settings: Homo sapiens; range over CCRF-CEM, MDA-MB-231, PC3, DU-145; read-out: IC50 against all the cancer cell lines (range)
Experimental: (§1) All the 14 hybrid compounds synthesized via Scheme 1, along with the intermediates and starting compounds, were tested in vitro for their cytotoxicity against a panel of 6 human cancer cell lines. This panel involved human leukemia carcinoma (CCRF-CEM), human ovarian adenocarcinoma (SKOV-3), human breast tumor (MDA-MB-231), human prostate cancer (PC-3), androgen-independent human prostate cancer (DU-145), and human renal carcinoma (iSLK) cell lines. The compounds were tested at a concentration of 25 μM for incubation periods of 24 and 72 h. Standard anticancer drug doxorubicin at a concentration of 5 μM and DMSO were used as controls in all the cell assays. The antiproliferative profile of benzopyran-4-one-isoxazole conjugates is shown in Figure 2 (cf. Supplementary Materials for the data obtained for intermediates and starting materials Figure S28.1–S28.6, page no. 71–76).
(§2) Cell viability assays were performed using the MTS protocol. The in vitro cytotoxicity of the conjugates was evaluated using six human cancer cell lines, one human normal kidney cell line, and one mammalian normal kidney cell line, which included human leukemia carcinoma cell lines (CCRF-CEM), human ovarian adenocarcinoma cell lines (SKOV-3), human breast tumor cell lines (MDA-MB-231), human prostate cancer cell lines (PC-3), androgen-independent human prostate cancer cell lines (DU-145), human renal carcinoma (iSLK), human embryonic kidney cell lines (HEK-293), and normal mammalian kidney cell line (LLCPK) to determine the toxicity of the synthesized conjugates. CCRF-CEM cells were seeded at 50,000 cells in 0.1 mL per well in 96-well plates, and in the case of SKOV-3, MDA-MB-231, PC-3, DU-145, HEK-293, and LLCPK cell lines, the cells were seeded at 5000 cells in 0.1 mL per well in 96-well plates. The CCRF-CEM cells were seeded in RPMI-1640 media containing 2mM L-glutamine, 1.5 g/L sodium bicarbonate, supplemented with fetal bovine serum (FBS) 10% media, SKOV-3, MDA-MB-231, and LLCPK cells were seeded in MEME media with Earle’s salts and sodium bicarbonate, without L-glutamine, supplemented with fetal bovine serum (FBS) 10%, PC-3 cells were seeded in DMEM:F-12 containing 1:1 mixture with L-glutamine with HEPES, supplemented with fetal bovine serum (FBS) 10%, and DU-145 and HEK-293 cells were seeded in DMEM containing 4500 mg/L glucose, L-glutamine, and sodium bicarbonate, without sodium pyruvate, supplemented with FBS (10%), 24 h prior to the experiment. The compounds at a final concentration of 25 µM (higher concentration stock solution prepared in DMSO) were added to each well in triplicate and incubated for 24 and 72 h at 37 °C in a humidified atmosphere (95% air and 5% CO2). The cell viability was then determined by measuring the absorbance of the formazan product at 490 nm using a microplate reader using a SpectraMax M2 microplate spectrophotometer, Molecular Devices, San Jose, CA, USA. The percentage of cell survival was calculated as [(OD value of cells treated with the test mixture of compounds) − (OD value of culture medium)]/[(OD value of control cells) − (OD value of culture medium)] × 100%. IC50 values of compounds were calculated using non-linear regression analysis in GraphPad Prism (Boston, MA, USA).

[3] = system: androgen-independent human prostate cancer (DU-145) cell lines; test: MTS cell viability assay; assay type: cell-based; settings: for IC50: average of three independent tests in triplicate; for inhibition at 25 µM: conjugates at 25 μM
Experimental: as §1, §2

[4] = system: human breast tumor (MDA-MB-231) cell lines; test: MTS cell viability assay; assay type: cell-based; settings: for IC50: average of three independent tests in triplicate; for inhibition at 25 µM: conjugates at 25 μM
Experimental: as §1, §2

[5] = system: human renal carcinoma (iSLK) cell lines; test: MTS cell viability assay; assay type: cell-based; settings: 72 h; for inhibition at 25 µM: Homo sapiens, conjugates at 25 μM, read-out: Inhibition of Cancer Cell Lines iSLK
Experimental: as §1, §2

[6] = system: human prostate cancer (PC-3) cell lines; test: MTS cell viability assay; assay type: cell-based; settings: for IC50: PC3, average of three independent tests in triplicate; for inhibition at 25 µM: conjugates at 25 μM
Experimental: as §1, §2

[7] = system: human ovarian adenocarcinoma (SKOV-3) cell lines; test: MTS cell viability assay; assay type: cell-based; settings: 72 h, read-out: Inhibition of Cancer Cell Lines SKOV-3; for inhibition at 25 µM: SK-OV-3, conjugates at 25 μM
Experimental: as §1, §2

[8] = system: human leukemia carcinoma (CCRF-CEM) cell lines; test: MTS cell viability assay; assay type: cell-based; settings: for inhibition at 25 µM: conjugates at 25 μM; for IC50: average of three independent tests in triplicate
Experimental: as §1, §2

[9] = system: human embryonic kidney (HEK-293) cell lines; test: MTS cell viability assay, non-cancerous cells; assay type: cell-based; settings: for IC50: average of three independent tests in triplicate; for inhibition at 25 µM: HEK293, conjugates at 25 μM, 72 h
Text: (§3) The compounds were further screened for their in vitro cytotoxicity against non-cancerous normal cell lines, viz., human embryonic kidney (HEK-293) and normal pig kidney (LLCPK) cell lines. These cell lines were selected to determine whether the compounds had selectivity against cancerous cells in contrast to non-cancerous cells. The data obtained is shown in Figure 3a–b (cf. Supplementary Materials for the data obtained for intermediates and starting materials Figure S28.7–S28.8, page no. 77–78).
as §2

[10] = system: normal pig kidney (LLCPK) cell lines; test: MTS cell viability assay, non-cancerous cells; assay type: cell-based; settings: Sus scrofa, 72 h
Text: as §3, §2

[11] = system: human embryonic kidney (HEK-293) cell lines; test: MTS cell viability assay, non-cancerous cells; assay type: cell-based; settings: HEK293, Dox at 5 μM, 72 h
[12] = system: MDA-MB-231 cells; test: Annexin V-FITC/PI apoptosis assay by flow cytometry; assay type: cell-based, human; settings: MDA-MB-231, 5 μM, 72 h
Experimental: In accordance with the MTS assay, compound 5a had promising antiproliferative action. Therefore, we attempted to study the mechanism triggering cell death. […] MDA-MB-231 cells were treated with 5 μM of compound 5a and Dox (5 μM) as a positive control and incubated for 72 h, then double-stained carefully by membrane-linked protein Annexin-V fluorescein isothiocyanate (FITC) and propidium iodide (PI) for flow cytometry analysis. Normally, in the early stages of apoptosis, phosphatidylserine flips from the inner cell membrane to the surface of the cell membrane. […] PI is a nucleic acid dye that can only cross the membrane of advanced apoptosis and necrotic cells and redden the nucleus. Consequently, when the treated cells are double stained by the two fluorescent dyes, early and late apoptosis and necrotic cells can be clearly distinguished. […] These findings illustrated that compound 5a mainly leads to the early apoptosis of MDA-MB-231 cells.
The assay was detected using a commercially available kit (FITC Annexin V Apoptosis Detection Kit II, BD Biosciences, San Jose, CA, USA) per the manufacturer’s instructions. Briefly, MDA-MB-231 cells were seeded in 6-well plates at a concentration of 1 × 10^6 cells/well for 24 h; after that, cells were treated with 5a (5 µM) for 72 h. Dox (5 µM) was used as a positive control. After the treatment period, cells were washed with cold phosphate-buffered saline (PBS) twice. The cells were collected after trypsin treatment and centrifugated to get a pellet, and a binding buffer (1X) was used to resuspend the cells. Annexin V (5 μL) and propidium iodide (PI) (5 μL) were mixed with 100 μL of the suspended cells (1 × 10^6 cells/mL), followed by 15 min incubation at room temperature in the dark. The mixture was diluted by adding 400 μL of 1× binding buffer, and the cells were analyzed using flow cytometry, FACS Verse (BD Biosciences, USA). The experiment was repeated three times independently.

[13] = 72 h, read-out: Inhibition of Cancer Cell Lines MDA-MB-231
[14] = Homo sapiens, CCRF-CEM, 72 h, read-out: Inhibition of Cancer Cell Lines CCRF-CEM
[15] = Homo sapiens, HEK293, normal HEK-293 cells

SMILES	IC50 [2]	IC50 [3]	inhibition at 25 µM ([3]; 72 h)	IC50 [4]	inhibition at 25 µM [4, 13]	inhibition at 25 µM [5]	IC50 [6]	inhibition at 25 µM ([6]; 72 h)	inhibition at 25 µM [7]	inhibition at 25 µM [8, 14]	IC50 ([8]; Homo sapiens, CCRF-CEM)	IC50 [9, 15]	inhibition at 25 µM ([9]; Homo sapiens)	IC50 ([9]; normal HEK-293 cells)	other results
O=c1cc(N2CCOCC2)oc2c(-c3ccccc3)cccc12 [LY294002, 2-(4-Morpholinyl)-8-Phenyl-4H-1-Benzopyran-4-One]															IC50 [1]: ~1.4 µM
COc1ccc2occ(COC(=O)c3c(C)noc3C)c(=O)c2c1 [Compound 5c, (6-Methoxy-4-oxo-4H-1-benzopyran-3-yl)methyl 3,5-dimethylisoxazole-4-carboxylate]	3.3 to 12.9 µM	12.2 µM	81%	11 µM	70%	31%	12.9 µM	74%	45%	83%	3.31 µM	222 µM	38%		fold potency for CCRF-CEM cell lines ([8]; compared to 5a, 5b, and 5d, from IC50): 3–12 fold
COc1ccc2c(=O)c(COC(=O)c3c(C)noc3C)coc2c1 [Compound 5d, (7-Methoxy-4-oxo-4H-1-benzopyran-3-yl)methyl 3,5-dimethylisoxazole-4-carboxylate]	5.2 to 16.1 µM	14.6 µM	79%	5.26 µM	76%	42%	12.7 µM	75%	48%	82%	16.2 µM	192 µM	40%	102 µM	inhibition at 25 µM ([10]; conjugates at 25 μM): 18%
COc1cccc2c1C(=O)c1c(O)c3c(c(O)c1C2=O)C[C@@](O)(C(=O)CO)C[C@@H]3O[C@H]1C[C@H](N)[C@H](O)[C@H](C)O1 [doxorubicin, reference compound]															inhibition at 5 µM [11]: 43%; Early Apoptosis [12]: 61.15%; Late Apoptosis [12]: 28.29%; inhibition at 5 µM ([3]; Dox at 5 μM, 72 h): 57%; inhibition at 5 µM ([4]; Dox at 5 μM, 72 h, read-out: Inhibition of Cancer Cell Lines MDA-MB-231): 73%; Inhibition of Cancer Cell Lines iSLK ([5]; Dox at 5 μM): NIL; inhibition at 5 µM ([6]; Dox at 5 μM, 72 h): 54%; inhibition at 5 µM ([7]; SK-OV-3, Dox at 5 μM): 62%; inhibition at 5 µM ([8]; Homo sapiens, CCRF-CEM, Dox at 5 μM, 72 h, read-out: Inhibition of Cancer Cell Lines CCRF-CEM): 82%; inhibition at 5 µM ([10]; Dox at 5 μM): 74%
COc1cccc2occ(COC(=O)c3c(C)noc3C)c(=O)c12 [Compound 5b, (5-Methoxy-4-oxo-4H-1-benzopyran-3-yl)methyl 3,5-dimethylisoxazole-4-carboxylate]	14.8 to 51.1 µM	51.1 µM	50%	22.2 µM	60%	23%	14.8 µM	75%	42%	83%	36.5 µM	102 µM	34%	192 µM	
